Results published in patent US20040053383A1, “Crystals of cytochrome P450 2C9, structures thereof and their use” (ASTEX TECHNOLOGY LTD., priority 2001, published 2004).

How the values were obtained:
2C9 = 2C9 (Homo sapiens, UniProt P11712); details: cited from earlier work; for Ki: read-out: 2C9 Published data, Ki, published
2C9-FGloop K206E = 2C9-FGloop K206E (Homo sapiens, UniProt P11712, C216Y/I215V/I222L/I223L/K206E/P221A/S220P); test: biochemical
2C9trunc = 2C9trunc (Homo sapiens, UniProt P11712); test: Inhibition assay with substrates/inhibitors of 2C9
2C19 = 2C19 (Homo sapiens, UniProt P33261); details: protein 2C19 (published), Table 17; cited from earlier work
1155 = biological target: T1, 1155 (Homo sapiens, UniProt P11712, C216Y/I215V/I222L/I223L/K206E/P221A/S220P); test: Inhibition assay with substrates/inhibitors of 2C19 and 2C9 (Table 17); format: biochemical; details: protein 1155, Table 17
T1 construct: is residue 30 (all numbering is in relation to the full length protein), and the last residue is residue 490; made in house; host or cells: E. coli XL1 Blue

1600 = biological target: T2, 1600 (Homo sapiens, UniProt P11712, C216Y/E288V/F295L/I215V/I222L/I223L/I331V/I99H/K206E/L362I/N289I/P221A/S220P/S286N/V292A); test: Inhibition assay on 2C9-2C19 chimera (Table 17); format: biochemical; details: chimera 1600, Table 17
T2 construct: is residue 30 (all numbering is in relation to the full length protein), and the last residue is residue 490; made in house; host or cells: E. coli XL1 Blue

1632 = biological target: T3, 1632 (Homo sapiens, UniProt P11712, C216Y/E288V/F295L/I215V/I222L/I223L/I99H/K206E/N289I/P221A/S220P/S286N/V292A); test: Inhibition assay on 2C9-2C19 chimera (Table 17); format: biochemical; details: chimera 1632, Table 17
T3 construct: is residue 30 (all numbering is in relation to the full length protein), and the last residue is residue 490; made in house; host or cells: E. coli XL1 Blue

1661 = biological target: T4, 1661 (Homo sapiens, UniProt P11712, C216Y/I215V/I222L/I223L/I99H/K206E/N289I/P221A/S220P/S286N); test: Inhibition assay on 2C9-2C19 chimera (Table 17); format: biochemical; details: chimera 1661, Table 17
T4 construct: is residue 30 (all numbering is in relation to the full length protein), and the last residue is residue 490; made in house; host or cells: E. coli XL1 Blue
T4 sequence (P11712 30-490 I99H/K206E/I215V/C216Y/S220P/P221A/I222L/I223L/S286N/N289I): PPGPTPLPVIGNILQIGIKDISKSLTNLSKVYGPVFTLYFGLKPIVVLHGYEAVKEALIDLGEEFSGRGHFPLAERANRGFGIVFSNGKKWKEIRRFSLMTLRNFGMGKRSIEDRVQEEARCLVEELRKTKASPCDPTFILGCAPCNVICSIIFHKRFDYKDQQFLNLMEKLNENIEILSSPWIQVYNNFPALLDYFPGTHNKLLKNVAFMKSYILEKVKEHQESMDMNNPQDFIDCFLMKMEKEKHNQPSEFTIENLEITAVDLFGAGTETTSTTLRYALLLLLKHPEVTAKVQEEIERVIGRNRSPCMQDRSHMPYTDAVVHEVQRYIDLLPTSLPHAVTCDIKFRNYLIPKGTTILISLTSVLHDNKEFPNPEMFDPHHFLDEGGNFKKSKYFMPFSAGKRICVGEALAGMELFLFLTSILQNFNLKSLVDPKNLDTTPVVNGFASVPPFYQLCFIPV

2C9, sequence (P11712 whole entry): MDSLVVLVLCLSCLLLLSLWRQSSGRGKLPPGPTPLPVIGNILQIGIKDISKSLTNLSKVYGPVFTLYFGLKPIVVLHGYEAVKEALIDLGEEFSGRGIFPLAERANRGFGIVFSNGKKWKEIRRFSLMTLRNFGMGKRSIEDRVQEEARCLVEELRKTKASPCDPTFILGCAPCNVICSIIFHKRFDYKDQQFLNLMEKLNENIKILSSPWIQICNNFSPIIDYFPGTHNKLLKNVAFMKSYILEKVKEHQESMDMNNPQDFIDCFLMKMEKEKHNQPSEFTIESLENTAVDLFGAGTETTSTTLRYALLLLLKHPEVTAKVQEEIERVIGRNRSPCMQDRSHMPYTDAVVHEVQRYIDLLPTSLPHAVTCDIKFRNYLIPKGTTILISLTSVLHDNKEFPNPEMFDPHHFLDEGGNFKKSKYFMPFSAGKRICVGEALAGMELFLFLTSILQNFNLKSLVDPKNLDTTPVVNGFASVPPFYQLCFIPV
2C9trunc, sequence (P11712 30-490): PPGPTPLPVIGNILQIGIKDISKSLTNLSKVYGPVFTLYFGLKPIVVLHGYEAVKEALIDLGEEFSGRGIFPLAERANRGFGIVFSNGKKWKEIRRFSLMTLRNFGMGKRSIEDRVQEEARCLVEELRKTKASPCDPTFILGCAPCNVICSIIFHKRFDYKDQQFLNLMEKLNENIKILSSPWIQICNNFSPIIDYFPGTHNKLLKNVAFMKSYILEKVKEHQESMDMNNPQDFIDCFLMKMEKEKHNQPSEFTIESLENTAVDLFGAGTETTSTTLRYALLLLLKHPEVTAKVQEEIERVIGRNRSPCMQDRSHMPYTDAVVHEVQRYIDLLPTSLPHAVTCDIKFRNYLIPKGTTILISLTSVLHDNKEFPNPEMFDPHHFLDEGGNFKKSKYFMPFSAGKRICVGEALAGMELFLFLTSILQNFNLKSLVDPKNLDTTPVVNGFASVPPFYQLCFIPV
2C9-FGloop K206E, sequence (P11712 30-490 K206E/I215V/C216Y/S220P/P221A/I222L/I223L): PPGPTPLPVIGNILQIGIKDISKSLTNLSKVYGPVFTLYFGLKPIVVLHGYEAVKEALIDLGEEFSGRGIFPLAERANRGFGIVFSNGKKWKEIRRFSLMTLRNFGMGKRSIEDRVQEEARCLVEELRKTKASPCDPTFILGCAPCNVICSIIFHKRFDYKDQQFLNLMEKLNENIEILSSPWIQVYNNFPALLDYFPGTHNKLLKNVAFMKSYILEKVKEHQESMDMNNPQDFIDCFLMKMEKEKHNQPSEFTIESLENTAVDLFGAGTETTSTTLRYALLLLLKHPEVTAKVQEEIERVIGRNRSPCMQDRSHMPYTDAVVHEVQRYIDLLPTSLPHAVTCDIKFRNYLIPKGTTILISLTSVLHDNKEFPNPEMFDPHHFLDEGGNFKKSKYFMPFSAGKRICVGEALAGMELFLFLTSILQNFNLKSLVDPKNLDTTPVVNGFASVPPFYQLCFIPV
2C19, sequence (P33261 whole entry): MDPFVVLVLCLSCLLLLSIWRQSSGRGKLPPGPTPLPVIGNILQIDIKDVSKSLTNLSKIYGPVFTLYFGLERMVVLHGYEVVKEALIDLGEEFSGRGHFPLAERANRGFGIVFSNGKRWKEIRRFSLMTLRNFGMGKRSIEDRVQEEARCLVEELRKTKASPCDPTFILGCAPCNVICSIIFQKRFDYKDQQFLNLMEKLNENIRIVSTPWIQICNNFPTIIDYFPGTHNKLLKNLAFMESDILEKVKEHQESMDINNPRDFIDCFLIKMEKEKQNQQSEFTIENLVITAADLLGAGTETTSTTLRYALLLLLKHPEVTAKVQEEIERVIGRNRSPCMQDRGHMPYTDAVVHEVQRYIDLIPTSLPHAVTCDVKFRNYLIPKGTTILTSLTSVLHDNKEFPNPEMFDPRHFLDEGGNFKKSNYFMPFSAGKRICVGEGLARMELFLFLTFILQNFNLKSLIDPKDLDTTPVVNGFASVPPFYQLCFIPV
T2 sequence (P11712 30-490 I99H/K206E/I215V/C216Y/S220P/P221A/I222L/I223L/S286N/E288V/N289I/V292A/F295L/I331V/L362I): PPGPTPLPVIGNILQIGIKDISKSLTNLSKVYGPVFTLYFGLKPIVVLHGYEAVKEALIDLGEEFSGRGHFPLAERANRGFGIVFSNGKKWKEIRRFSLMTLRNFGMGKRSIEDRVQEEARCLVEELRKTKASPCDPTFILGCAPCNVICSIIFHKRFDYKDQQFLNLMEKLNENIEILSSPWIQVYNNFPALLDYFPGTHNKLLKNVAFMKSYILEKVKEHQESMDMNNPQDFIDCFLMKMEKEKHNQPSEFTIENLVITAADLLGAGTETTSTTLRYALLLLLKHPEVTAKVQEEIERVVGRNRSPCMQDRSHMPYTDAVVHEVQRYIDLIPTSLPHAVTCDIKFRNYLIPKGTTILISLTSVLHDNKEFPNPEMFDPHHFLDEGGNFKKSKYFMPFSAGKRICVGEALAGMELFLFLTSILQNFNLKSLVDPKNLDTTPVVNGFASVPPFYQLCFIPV
T3 sequence (P11712 30-490 I99H/K206E/I215V/C216Y/S220P/P221A/I222L/I223L/S286N/E288V/N289I/V292A/F295L): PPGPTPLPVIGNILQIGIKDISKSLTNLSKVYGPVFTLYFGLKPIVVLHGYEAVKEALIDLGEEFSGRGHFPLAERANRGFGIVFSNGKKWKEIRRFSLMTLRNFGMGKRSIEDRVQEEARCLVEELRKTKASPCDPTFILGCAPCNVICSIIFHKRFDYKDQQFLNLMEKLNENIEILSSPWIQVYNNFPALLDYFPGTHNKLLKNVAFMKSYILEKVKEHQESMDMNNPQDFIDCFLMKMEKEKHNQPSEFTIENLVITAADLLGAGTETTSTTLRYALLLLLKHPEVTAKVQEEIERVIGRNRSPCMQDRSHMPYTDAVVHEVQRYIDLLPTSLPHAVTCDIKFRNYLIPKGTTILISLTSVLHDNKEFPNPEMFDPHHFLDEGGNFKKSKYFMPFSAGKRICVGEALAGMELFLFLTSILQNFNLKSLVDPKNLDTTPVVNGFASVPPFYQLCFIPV
T1 sequence (P11712 30-490 K206E/I215V/C216Y/S220P/P221A/I222L/I223L): as the sequence (P11712 30-490 K206E/I215V/C216Y/S220P/P221A/I222L/I223L) above

Structure (SMILES)	IC50 (2C9-FGloop K206E)	Ki (2C9-FGloop K206E)	IC50 (2C9trunc)	Ki (2C9trunc)	Km (2C9)	Ki (2C19)	Ki (2C9)	Ki 1155	Ki 1600	Ki 1632	Ki 1661
O=C(O)Cc1ccccc1Nc1c(Cl)cccc1Cl [Diclofenac]						231 µM					
COCCCC/C(=N\OCCN)c1ccc(C(F)(F)F)cc1 [Fluvoxamine]	0.4 µM	0.85 µM	0.6 µM	0.7 µM			2 to 5 µM	0.4 µM	< 1 µM	1.6 µM	0.5 µM
CN1C(C(=O)Nc2ccccn2)=C(O)c2ccccc2S1(=O)=O [Piroxicam]						133 µM		30 µM	> 100 µM	> 100 µM	> 100 µM

Further lines, with some results ahead:

IC50 (2C9-FGloop K206E)	Ki (2C9-FGloop K206E)	IC50 (2C9trunc)	Ki (2C9trunc)	Structure (SMILES)	Km (2C9)	Ki (2C19)	Ki (2C9)	Ki 1155	Ki 1600	Ki 1632	Ki 1661
7.8 µM	3.3 µM	4.8 µM	2.9 µM	CC(C)(c1ccc(O)cc1)c1ccc(O)cc1 [Bisphenol A]	4 µM						
2.1 µM	4.1 µM	1.5 µM	1.5 µM	CNCCC(Oc1ccc(C(F)(F)F)cc1)c1ccccc1 (stereo not shown) [Fluoxetine]			13 µM				
